Assay results from patent publication US20200163336A1, “CYCLIC AMINE COMPOUND AND PEST CONTROL AGENT” (Nippon Soda Co., Ltd., priority 2017, published 2020).

Legend:
[1] = system: Tetranychus kanzawai; assay: Efficacy test against Tetranychus kanzawai (spray on mung beans); type: in vivo; details: 125 ppm by mass, sprayed on mung beans; female adults; 25° C., humidity 65%; 10 days after spraying
[2] = system: Tetranychus urticae; assay: Efficacy test against Tetranychus urticae (spray on common beans); type: in vivo; details: 125 ppm by mass, sprayed on common beans; female adults; 25° C., humidity 65%; 10 days after spraying

Compound	acaricidal rate [1]	acaricidal rate [2]
CSCC1CCN(C(=O)c2cc(C#N)c(-c3ccc(C(F)(F)F)cc3)nc2C)CC1 [a-90]	a-90%	a-90%
CCSCC1CCN(C(=O)c2cc(C#N)c(-c3ccc(C(F)(F)F)cc3)nc2CSC)CC1 [a-190]		a-190%
CCSCC1CCN(C(=O)c2cc(C(N)=S)c(-c3ccc(C(F)(F)F)cc3)nc2C(F)(F)C(F)(F)F)CC1 [b-90]		b-90%
